Test [1] deals with A2780 ovarian cells. Nature of the test: A2780 Ovarian Cell Proliferation Assay in Lipid Reduced Medium, with and without Palmitate (MTT). To be noted: Homo sapiens, 10% lipid-reduced serum, 96 h. The format is cell-based. The procedure: The biological assays described below correspond to comparative assays for ovarian cell proliferation.
2500 cells were seeded in a 96-well clear well plate in 200 μL RPM11640 with 10% Fetal Calf Serum (Hyclone), and incubated at 37° C., 5% CO2, Blanks were wells without cells. The next day the culture medium was aspirated and replaced by 160 μL culture medium with 10% Lipid-Reduced Serum (LRS, Hyclone). […] After 96 h incubation, an MTT assay was performed.
2500 cells were seeded in a 96-well clear well plate in 200 μL RPM11640 with 10% Fetal Calf Serum (Hyclone), and incubated at 37° C., 5% CO2. Blanks were wells without cells. The next day the culture medium was aspirated and replaced by 160 μL culture medium with 10% Lipid-Reduced Serum (LRS, Hyclone). 20 μL test compound (at concentrations of 30 μM, 10 μM, 3 μM, 1 μM, 0.30 μM, 0.10 μM, 0.03 μM and 0.01 μM)/DMSO dilution followed by 20 μL ethanol-BSA solution were added to a final concentrations of 0.2% DMSO, 0.2% fatty-acid-free BSA, 0.25% ethanol. After 96 h incubation an MTT assay was performed.
Raw data generated by the instrument were normalized to % Controlmin values, which were calculated as: % Controlmin=100*(x−mLC)/(mHC−mLC)
where mLC and mHC were the means of the low control wells and high control wells on the plate, after manual exclusion of outliers. A plot of Controlmin versus test compound concentration was fitted to a 4-parameter logistic curve using a non-linear least squares regression method.

In test [2] the test system is PC-3M-Luc-C6 prostate cells. Nature of the test: In Vitro PC-3M-Luc-C6 Prostate Cell Proliferation Assay in Lipid Reduced Medium. In kind it is cell-based. The note with it: Prostate cell, read-out: pIC50 PC-3M-Luc-C6 prostate cell (converted); 10% lipid reduced serum, 96 h, ATP-glow luminescence. The procedure:
PC-3M-Luc-C6 prostate cells were obtained from Xenogen Corporation. Cells were maintained in MEM supplemented with 10% Fetal Calf Serum (FCS, Hyclone), 2 mM glutamine, 1 mM sodium pyruvate, 1% BME vitamins (available from for example, Sigma Aldrich), 0.1 mM non Essential Amino Acid and 50 μg/ml Gentamicin. The cells were passaged twice a week.
The next day 10 μl test compound/DMSO diluted in medium was added (3E-5M, 1E-5M, 3E-6M,1E-6M, 3E-7M, 1E-7M, 3E-8M, 1E-8M final concentration). Compounds were tested in duplicate. After 96 h incubation at 37° C., 5% CO2 25 μl ATP-glow mix was added. The plate was incubated for 30 min at 37° C. and luminescence was measured with the Envision.
Analysis: Determination of pIC50 Values
pIC50 values were calculated as follows. Raw data generated by the instruments were normalized to % Controlmin values, which were calculated as: % Controlmin=100*(x−mLC)/(mHC−mLC),
where mLC and mHC are the means of the low control wells and high control wells on the plate, after manual exclusion of outliers. The relation between the % Controlmin values and concentration was fitted to a 4-parameter logistic curve using a non-linear least squares regression method to determine the pIC50 value. Outlying data points were excluded manually to get a correct fit. The pIC50 corresponds to −log 10(IC50), if the IC50 is expressed in molar units (http://www.ncbi.nlm.nih.qovibooks/NBK91994). The IC50 parameter was always determined by non-linear regression, but one or more of the other parameters may have been held fixed on a relevant input value, such as 0 for the bottom values.

[3] abbreviates: 25 μM palmitate added (control), read-out: pIC50 With Palmitate (converted).
Where [4] appears, read: no palmitate, read-out: pIC50 Without Palmitate (converted).

Molecules are shown by their SMILES. Read-outs that look alike come from different tables or passages of the source.

`Cn1ncc2cc(-c3ccc(C4=NC(C)(C)C(=O)N4C[C@@H]4CCN(C(=O)C5CC5)C4)cc3)ccc21` [Compound 2, (R)-1-((1-(cyclopropanecarbonyl)pyrrolidin-3-yl)methyl)-4,4-dimethyl-2-(4-(1-methyl-1H-indazol-5-yl)phenyl)-1H-imidazol-5(4H)-one]: the IC50 in test [1] (setting [3]) is more than 10000 nM; in test [1] (setting [4]) it was 525 nM.

Take `CC1(C)N=C(c2ccc(-c3ccc4ncccc4c3)cc2)N(CC2CN(C(=O)C3CC3)C2)C1=O` [Compound 98, 1-((1-(cyclopropanecarbonyl)azetidin-3-yl)methyl)-4,4-dimethyl-2-(4-(quinolin-6-yl)phenyl)-1H-imidazol-5(4H)-one]: the IC50 in test [1] (setting [3]) and in test [1] (setting [4]) was more than 10000 nM throughout.

As to `Cc1cc(-c2ccc3cc(C#N)ccc3c2)ccc1C1=NC(C)(C)C(=O)N1CC1CN(C(=O)C2CC2)C1` [Compound 96, 6-(4-(1-((1-(cyclopropanecarbonyl)azetidin-3-yl)methyl)-4,4-dimethyl-5-oxo-4,5-dihydro-1H-imidazol-2-yl)-3-methylphenyl)-2-naphthonitrile], the results for the IC50 in test [1] (setting [3]) and in test [1] (setting [4]) were more than 10000 nM and approximately 22.4 nM, respectively.

Take `Cn1cc(-c2ccc(-c3ccc(C4=NC(C)(C)C(=O)N4C[C@@H]4CCN(C(=O)C5(O)CC5)C4)c(F)c3)cc2)cn1` [Compound 95, (R)-2-(3-fluoro-4′-(1-methyl-1H-pyrazol-4-yl)-[1,1′-biphenyl]-4-yl)-1-((1-(1-hydroxycyclopropanecarbonyl)pyrrolidin-3-yl)methyl)-4,4-dimethyl-1H-imidazol-6(4H)-one]: the IC50 in test [1] (setting [3]) is more than 10000 nM; in test [1] (setting [4]), approximately 5.37 nM.

Turning to `Cc1cc(-c2ccc(-c3cnn(C)c3)cc2)ccc1C1=NC(C)(C)C(=O)N1C[C@@H]1CCN(C(=O)C2(C)CC2)C1` [Compound 84], the IC50 is 4370 nM in test [1] (setting [3]), 3.31 nM in test [1] (setting [4]) and 7.76 nM in test [2].

Regarding `CC1(C)N=C(c2ccc(-c3ccc4ncccc4c3)cc2)N(C[C@@H]2CCN(C(=O)C3CC3)C2)C1=O` [Compound 64, (R)-1-((1-(cyclopropanecarbonyl)pyrrolidin-3-yl)methyl)-4,4-dimethyl-2-(4-(quinolin-6-yl)phenyl)-1H-imidazol-5(4H)-one], the IC50 in test [1] (setting [3]) was more than 10000 nM; in test [1] (setting [4]) it was 4470 nM.

For `Cn1cnc2cc(-c3ccc(C4=NC(C)(C)C(=O)N4C[C@@H]4CCN(C(=O)C5(O)CC5)C4)c(F)c3)ccc21` [Compound 89, (R)-2-(2-fluoro-4-(1-methyl-1H-benzo[d]imidazol-5-yl)phenyl)-1-((1-(1-hydroxycyclopropanecarbonyl)pyrrolidin-3-yl)methyl)-4,4-dimethyl-1H-imidazol-5(4H)-one], the IC50 is more than 10000 nM in test [1] (setting [3]) and 6.76 nM in test [1] (setting [4]).

As for `Cn1cnc2cc(-c3ccc(C4=NC(C)(C)C(=O)N4CC4CN(C(=O)C5(O)CC5)C4)c(F)c3)ccc21` [Compound 94, 2-(2-fluoro-4-(1-methyl-1H-benzo[d]imidazol-5-yl)phenyl)-1-((1-(1-hydroxycyclopropanecarbonyl)azetidin-3-yl)methyl)-4,4-dimethyl-1H-imidazol-5(4H)-one], the IC50 in test [1] (setting [3]) is more than 10000 nM; in test [1] (setting [4]), 100 nM.

With `Cn1cnc2cc(-c3ccc(C4=NC(C)(C)C(=O)N4C[C@@H]4CCN(C(=O)C5(C)CC5)C4)c(F)c3)ccc21` [Compound 90, (R)-2-(2-fluoro-4-(1-methyl-1H-benzo[d]imidazol-5-yl)phenyl)-4,4-dimethyl-1-((1-(1-methylcyclopropanecarbonyl)pyrrolidin-3-yl)methyl)-1H-imidazol-5(4H)-one], the IC50 in test [1] (setting [3]) is more than 10000 nM; in test [1] (setting [4]), approximately 2.95 nM.

As to `CC1(C)N=C(c2ccc(-c3ccc4cc(F)ccc4c3)cc2F)N(C[C@@H]2CCN(C(=O)C3(O)CC3)C2)C1=O` [Compound 88, (R)-2-(2-fluoro-4-(6-fluoronaphthalen-2-yl)phenyl)-1-((1-(1-hydroxycyclopropanecarbonyl)pyrrolidin-3-yl)methyl)-4,4-dimethyl-1H-imidazol-5(4H)-one], the IC50 in test [1] (setting [3]) was more than 10000 nM; in test [1] (setting [4]), approximately 14.8 nM.

For `CC1(C(=O)N2CC[C@@H](CN3C(=O)C(C)(C)N=C3c3ccc(-c4ccc5cc(F)ccc5c4)cc3F)C2)CC1` [Compound 75, (R)-2-(2-fluoro-4-(6-fluoronaphthalen-2-yl)phenyl)-4,4-dimethyl-1-((1-(1-methylcyclopropanecarbonyl)pyrrolidin-3-yl)methyl)-1H-imidazol-5(4H)-one], the figures for the IC50 in test [1] (setting [3]) and in test [1] (setting [4]) were 3310 nM and 11 nM, respectively.

Regarding `CC1(C)N=C(c2ccc(-c3ccc4occc4c3)cc2)N(C[C@@H]2CCN(C(=O)C3(F)CC3)C2)C1=O` [Compound 4, (R)-2-(4-(benzofuran-5-yl)phenyl)-1-((1-(1-fluorocyclopropanecarbonyl)pyrrolidin-3-yl)methyl)-4,4-dimethyl-1H-imidazol-5(4H)-one], the IC50 in test [1] (setting [3]) is more than 10000 nM; in test [1] (setting [4]), 2750 nM.

Regarding `Cc1cc(-c2ccc3c(c2)ncn3C)ccc1C1=NC(C)(C)C(=O)N1CC1CN(C(=O)C2(O)CC2)C1` [Compound 91, 1-((1-(1-hydroxycyclopropanecarbonyl)azetidin-3-yl)methyl)-4,4-dimethyl-2-(2-methyl-4-(1-methyl-1H-benzo[d]imidazol-5-yl)phenyl)-1H-imidazol-5(4H)-one], the IC50 in test [1] (setting [3]) is more than 10000 nM; in test [1] (setting [4]), 129 nM.

For `Cn1ncc2cc(-c3ccc(C4=NC(C)(C)C(=O)N4C[C@@H]4CCN(C(=O)C5(O)CC5)C4)c(F)c3)ccc21` [Compound 76, (R)-2-(2-fluoro-4-(1-methyl-1H-indazol-5-yl)phenyl)-1((1-(1-hydroxycyclopropanecarbonyl)pyrrolidin-3-yl)methyl)-4,4-dimethyl-1H-imidazol-5(4H)-one], the IC50 in test [1] (setting [3]) is more than 10000 nM; in test [1] (setting [4]), 23.4 nM.

As for `Cc1cc(-c2ccc3c(c2)ncn3C)ccc1C1=NC(C)(C)C(=O)N1C[C@@H]1CCN(C(=O)C2(O)CC2)C1` [Compound 92, (R)-1-((1-(1-hydroxycyclopropanecarbonyl)pyrrolidin-3-yl)methyl)-4,4-dimethyl-2-(2-methyl-4-(1-methyl-1H-benzo[d]imidazol-5-yl)phenyl)-1H-imidazol-5(4H)-one], the IC50 was more than 10000 nM in test [1] (setting [3]) and approximately 5.5 nM in test [1] (setting [4]).

For the compound `Cn1cnc2cc(-c3ccc(C4=NC(C)(C)C(=O)N4CC4CN(C(=O)C5(C)CC5)C4)c(F)c3)ccc21` [Compound 93, 2-(2-fluoro-4-(1-methyl-1H-benzo[d]imidazol-5-yl)phenyl)-4,4-dimethyl-1-((1-(1-methylcyclopropanecarbonyl)azetidin-3-yl)methyl)-1H-imidazol-5(4H)-one], the IC50 in test [1] (setting [3]) is more than 10000 nM; in test [1] (setting [4]), 30.9 nM.

`CC1(C)N=C(c2ccc(-c3n[nH]c4ccccc34)cc2)N(CC2CN(C(=O)C3CC3)C2)C1=O` [Compound 99, 2-(4-(1H-indazol-3-yl)phenyl)-1-((1-(cyclopropanecarbonyl)azetidin-3-yl)methyl)-4,4-dimethyl-1H-imidazol-5(4H)-one]: the IC50 in test [1] (setting [3]) and in test [1] (setting [4]) was more than 10000 nM in each case.

`CC1(C)N=C(c2ccc(-c3ccc4occc4c3)cc2)N(C[C@@H]2CCN(C(=O)C3CC3)C2)C1=O` [Compound 3, (R)-2-(4-(benzofuran-5-yl)phenyl)-1-((1-(cyclopropanecarbonyl)pyrrolidin-3-yl)methyl)-4,4-dimethyl-1H-imidazol-5(4H)-one]: the IC50 in test [1] (setting [3]) is more than 10000 nM; in test [1] (setting [4]), 1480 nM.

On to `CC1(C)N=C(c2ccc(-c3ccc4[nH]ccc4c3)cc2)N(C[C@@H]2CCN(C(=O)C3CC3)C2)C1=O` [Compound 1, (R)-2-(4-(1H-Indol-5-yl)phenyl)-1-((1-(cyclopropanecarbonyl)pyrrolidin-3-yl)methyl)-4,4-dimethyl-1H-imidazol-5(4H)-one], for which the IC50 in test [1] (setting [3]) is more than 10000 nM; in test [1] (setting [4]) it was 74.1 nM.

Source of the values: patent publication US10413545B2, “Imidazolin-5-one derivative useful as FASN inhibitors for the treatment of cancer” (Janssen Pharmaceutica NV, priority 2013, dated 2019).
